According to patent US20240174659A1, “COMPOUNDS AND METHODS FOR YAP/TEAD MODULATION AND INDICATIONS THEREFOR” (Opna Bio SA, priority 2021, published 2024):
Counter-ions that a name gives are not always drawn.

system: TEAD-dependent transcription; assay: Inhibitor activity against TEAD-dependent transcription in a cell-based reporter assay (MSTO-211H+12XGTIIC luciferase); settings: Homo sapiens; MSTO-211H+12XGTIIC cells, 24 hours incubation, luciferase luminescence normalized to cell viability fluorescence, geometric mean; read-out: MSTO-211H GMean IC50 (uM) Cell Assay Reporter Cell Variant: TEAD
Excerpt: Determine Inhibitor Activity Against TEAD-Dependent Transcription in a Cell-Based Reporter Assay
The human mesothelioma cell line MSTO-211H was stably transfected with a pGL4.21 plasmid containing a synthetic promoter with 12 copies of the GTIIC TEAD response element that drives the expression of a luciferase reporter gene^1 using Lipofectamine transfection reagent (Thermo Fisher). Transfected cells were selected using puromycin and single cell clones expressing this construct (referred to as MSTO-211H+12XGTIIC) were generated by limiting dilution. MSTO-211H cells was characterized by genetic alterations in key components of the Hippo pathway^2, resulting in up-regulation of YAP/TEAD-mediated transcription. […] To evaluate TEAD inhibitors, the MSTO-211H+12XGTIIC cell line was seeded in a 96-well plate in 50 μL of culture media at 1×10^4 cells per well and incubated at 37° C. overnight. Serial dilutions of compounds (in total volume of 50 μL of culture media) were added to the cells and incubated at 37° C. for 24 hours. Each plate included cells treated with DMSO as high controls and cells treated with 20 μM of the reference compound K-975 (a known TEAD inhibitor)^3 as low controls. Cell viability was assayed by the addition of 25 μL of CellTiter-Fluor reagent (Promega) followed by a 30-minute incubation at 37° C. and quantification of the fluorescence signal (Ex400/Em505). Subsequently, luciferase expression was assayed by the addition of 25 μL of ONE-Glo reagent (Promega) followed by a 10-minute incubation at room temperature and quantification of the luminescence signal. The luminescence signal was normalized to the fluorescence signal to correct for any loss in cell viability over the 24-hour compound incubation period. The percentage of inhibition of normalized luminescence signal, indicative of compound-mediated inhibition of TEAD-dependent transcription, at individual compound concentrations relative to high and low controls was calculated. The data were analyzed by using nonlinear regression to generate IC50 values for individual compounds.

`C=CC(=O)N1CCc2ccc(OC3CC(F)(F)C3)cc2C1` [P-0020, 1-(7-(3,3-difluorocyclobutoxy)-3,4-dihydroisoquinolin-2(1H)-yl)prop-2-en-1-one] and `C=CC(=O)N1CCc2ccc(NC3CCC(F)(F)CC3)cc2C1` [P-0029, 1-(7-((4,4-difluorocyclohexyl)amino)-3,4-dihydroisoquinolin-2(1H)-yl)prop-2-en-1-one] fall in the same range of IC50: 0.001 to 0.5 µM for the first, 0.001 to 0.5 µM for the second.

`C=CC(=O)N1CCc2ccc(OC34CC5CC(CC(C5)C3)C4)cc2C1` [P-0021, 1-(7-(((3R,5R)-adamantan-1-yl)oxy)-3,4-dihydroisoquinolin-2(1H)-yl)prop-2-en-1-one] and `C=CC(=O)N1CCc2ccc(NC3CC4(CCC4)C3)cc2C1` [P-0055, 1-(7-(spiro[3.3]heptan-2-ylamino)-3,4-dihydroisoquinolin-2(1H)-yl)prop-2-en-1-one formate] fall in the same range of IC50: 0.001 to 0.5 µM for the first, 0.001 to 0.5 µM for the second.

`C=CC(=O)N1CCc2ccc(Nc3ccccc3F)cc2C1` [P-0022, 1-(7-((2-fluorophenyl)amino)-3,4-dihydroisoquinolin-2(1H)-yl)prop-2-en-1-one] and `C=CC(=O)N1CCc2ccc(Nc3ccc(F)cc3)cc2C1` [P-0023, 1-(7-((4-fluorophenyl)amino)-3,4-dihydroisoquinolin-2(1H)-yl)prop-2-en-1-one] fall in the same range of IC50: 0.001 to 0.5 µM for the first, 0.001 to 0.5 µM for the second.

`C=CC(=O)N1CCc2ccc(Nc3cccc(Cl)c3)cc2C1` [P-0024, 1-(7-((3-chlorophenyl)amino)-3,4-dihydroisoquinolin-2(1H)-yl)prop-2-en-1-one] and `C=CC(=O)N1CCc2ccc(Nc3cccc(C(F)(F)F)c3)cc2C1` [P-0025, 1-(7-((3-(trifluoromethyl)phenyl)amino) -3,4-dihydroisoquinolin-2(1H)-yl)prop-2-en-1-one] fall in the same range of IC50: 0.001 to 0.5 µM for the first, 0.001 to 0.5 µM for the second.

`C=CC(=O)N1CCc2ccc(N(C)c3ccccc3)cc2C1` [P-0026, 1-(7-(methyl(phenyl)amino)-3,4-dihydroisoquinolin-2(1H)-yl)prop-2-en-1-one] and `C=CC(=O)N1CCc2ccc(Cc3ccccc3)cc2C1` [P-0033, 1-(7-benzyl-3,4-dihydroisoquinolin-2(1H)-yl)prop-2-en-1-one] fall in the same range of IC50: 0.001 to 0.5 µM for the first, 0.001 to 0.5 µM for the second.

`C=CC(=O)N1CCc2ccc(Oc3ccc(C(F)(F)F)nc3)cc2C1` [P-0027, 1-(7-((6-(trifluoromethyl)pyridin-3-yl)oxy)-3,4-dihydroisoquinolin-2(1H)-yl)prop-2-en-1-one] and `C=C(F)C(=O)N1CCc2ccc(Oc3ccc(C(F)(F)F)nc3)cc2C1` [P-0051, 2-fluoro-1-(7-((6-(trifluoromethyl)pyridin-3-yl)oxy)-3,4-dihydroisoquinolin-2(1H)-yl)prop-2-en-1-one] fall in the same range of IC50: 0.001 to 0.5 µM for the first, 0.001 to 0.5 µM for the second.

Compared with `C=CC(=O)N1CCc2ccc(OC3CCN(S(C)(=O)=O)CC3)cc2C1` [P-0028, 1-(7-((1-(methylsulfonyl)piperidin-4-yl)oxy)-3,4-dihydroisoquinolin-2(1H)-yl)prop-2-en-1-one], `C=CC(=O)N1CCc2ccc(Oc3cccc(C4CC4)c3)cc2C1` [P-0046, 1-(7-(3-cyclopropylphenoxy)-3,4-dihydroisoquinolin-2(1H)-yl)prop-2-en-1-one] is lower in IC50: 0.5 to 20 µM for the first, 0.001 to 0.5 µM for the second.

`C=CC(=O)N1CCc2cc(F)c(Oc3ccccc3)cc2C1` [P-0030, 1-(6-fluoro-7-phenoxy-3,4-dihydroisoquinolin-2(1H)-yl)prop-2-en-1-one] and `C=CC(=O)N1CCc2cc(C)c(Oc3ccccc3)cc2C1` [P-0041, 1-(6-methyl-7-phenoxy-3,4-dihydroisoquinolin-2(1H)-yl)prop-2-en-1-one] fall in the same range of IC50: 0.001 to 0.5 µM for the first, 0.001 to 0.5 µM for the second.

`C=CC(=O)N1CCc2cc(F)c(Oc3cccc(F)c3)cc2C1` [P-0031, 1-(6-fluoro-7-(3-fluorophenoxy)-3,4-dihydroisoquinolin-2(1H)-yl)prop-2-en-1-one] and `C=CC(=O)N1CCc2cc(C)c(Oc3cccc(F)c3)cc2C1` [P-0042, 1-(7-(3-fluorophenoxy)-6-methyl-3,4-dihydroisoquinolin-2(1H)-yl)prop-2-en-1-one] fall in the same range of IC50: 0.001 to 0.5 µM for the first, 0.001 to 0.5 µM for the second.

`C=CC(=O)N1CCc2cc(F)c(Oc3ccc(F)cc3)cc2C1` [P-0032, 1-(6-fluoro-7-(4-fluorophenoxy)-3,4-dihydroisoquinolin-2(1H)-yl)prop-2-en-1-one] and `C=CC(=O)N1CCc2cc(C)c(Oc3ccc(F)cc3)cc2C1` [P-0043, 1-(7-(4-fluorophenoxy)-6-methyl-3,4-dihydroisoquinolin-2(1H)-yl)prop-2-en-1-one] fall in the same range of IC50: 0.001 to 0.5 µM for the first, 0.001 to 0.5 µM for the second.

`C=CC(=O)N1CCc2ccc(Cc3cccc(F)c3)cc2C1` [P-0034, 1-(7-(3-fluorobenzyl)-3,4-dihydroisoquinolin-2(1H)-yl)prop-2-en-1-one] and `C=CC(=O)N1CCc2ccc(Cc3ccc(F)cc3)cc2C1` [P-0035, 1-(7-(4-fluorobenzyl)-3,4-dihydroisoquinolin-2(1H)-yl)prop-2-en-1-one] fall in the same range of IC50: 0.001 to 0.5 µM for the first, 0.001 to 0.5 µM for the second.

`C=CC(=O)N1CCc2ccc(Oc3ccc(C)nc3)cc2C1` [P-0036, 1-(7-((6-methylpyridin-3-yl)oxy)-3,4-dihydroisoquinolin-2(1H)-yl)prop-2-en-1-one] and `C=CC(=O)N1CCc2ccc(Oc3ccc(C4CC4)cc3)cc2C1` [P-0047, 1-(7-(4-cyclopropylphenoxy)-3,4-dihydroisoquinolin-2(1H)-yl)prop-2-en-1-one] fall in the same range of IC50: 0.001 to 0.5 µM for the first, 0.001 to 0.5 µM for the second.

`C=C(F)C(=O)N1CCc2ccc(Oc3cccc(F)c3)cc2C1` [P-0037, 2-fluoro-1-(7-(3-fluorophenoxy)-3,4-dihydroisoquinolin-2(1H)-yl)prop-2-en-1-one] and `C=C(CO)C(=O)N1CCc2ccc(Oc3cccc(F)c3)cc2C1` [P-0038, 1-(7-(3-fluorophenoxy)-3,4-dihydroisoquinolin-2(1H)-yl)-2-(hydroxymethyl)prop-2-en-1-one] fall in the same range of IC50: 0.001 to 0.5 µM for the first, 0.001 to 0.5 µM for the second.

`O=C(/C=C/CN1CCOCC1)N1CCc2ccc(Oc3cccc(F)c3)cc2C1` [P-0039, (E)-1-(7-(3-fluorophenoxy)-3,4-dihydroisoquinolin-2(1H)-yl)-4-morpholinobut-2-en-1-one] and `CN1CCN(C/C=C/C(=O)N2CCc3ccc(Oc4cccc(F)c4)cc3C2)CC1` [P-0040, (E)-1-(7-(3-fluorophenoxy)-3,4-dihydroisoquinolin-2(1H)-yl)-4-(4-methylpiperazin-1-yl)but-2-en-1-one] cannot be ordered by IC50: greater than 20 µM for the first, greater than 20 µM for the second.

`C=CC(=O)N1CCc2ccc(Oc3ccc(F)c(C(F)(F)F)c3)cc2C1` [P-0044, 1-(7-(4-fluoro-3-(trifluoromethyl)phenoxy)-3,4-dihydroisoquinolin-2(1H)-yl)prop-2-en-1-one] and `C=CC(=O)N1CCc2ccc(Oc3ccc(C(F)(F)F)c(F)c3)cc2C1` [P-0045, 1-(7-(3-fluoro-4-(trifluoromethyl)phenoxy)-3,4-dihydroisoquinolin-2(1H)-yl)prop-2-en-1-one] fall in the same range of IC50: 0.001 to 0.5 µM for the first, 0.001 to 0.5 µM for the second.

`C=CC(=O)N1CCc2ccc(Oc3ccc(F)c(C4CC4)c3)cc2C1` [P-0048, 1-(7-(3-cyclopropyl-4-fluorophenoxy)-3,4-dihydroisoquinolin-2(1H)-yl)prop-2-en-1-one] and `C=CC(=O)N1CCc2ccc(Oc3ccc(C4CC4)c(F)c3)cc2C1` [P-0050, 1-(7-(4-cyclopropyl-3-fluorophenoxy)-3,4-dihydroisoquinolin-2(1H)-yl)prop-2-en-1-one] fall in the same range of IC50: 0.001 to 0.5 µM for the first, 0.001 to 0.5 µM for the second.

First: [2H]C([2H])=C([2H])C(=O)N1CCc2ccc(Oc3ccc(C(F)(F)F)c(F)c3)cc2C1 [P-0049, 1-(7-(3-fluoro-4-(trifluoromethyl)phenoxy)-3,4-dihydroisoquinolin-2(1H)-yl)prop-2-en-1-one-2,3,3-d3]
Second: C=CC(=O)N1CCc2ccc(Oc3ccc(OC(F)(F)F)cc3)cc2C1 [P-0052, 1-(7-(4-(trifluoromethoxy)phenoxy)-3,4-dihydroisoquinolin-2(1H)-yl)prop-2-en-1-one]
The IC50 of the first is lower: 0.001 to 0.5 µM for the first, greater than 20 µM for the second. The first is the more potent here.

`C=CC(=O)N1CCc2ccc(Oc3ccc(C(F)(F)F)cn3)cc2C1` [P-0053, 1-(7-((5-(trifluoromethyl)pyridin-2-yl)oxy)-3,4-dihydroisoquinolin-2(1H)-yl)prop-2-en-1-one formate] and `C=CC(=O)N1CCc2ccc(Oc3cc(F)ccc3F)cc2C1` [P-0058, 1-(7-(2,5-difluorophenoxy)-3,4-dihydroisoquinolin-2(1H)-yl)prop-2-en-1-one] fall in the same range of IC50: 0.001 to 0.5 µM for the first, 0.001 to 0.5 µM for the second.

`C=CC(=O)N1CCc2ccc(NC34CCC(CC3)CC4)cc2C1` [P-0054, 1-(7-(bicyclo[2.2.2]octan-1-ylamino)-3,4-dihydroisoquinolin-2(1H)-yl)prop-2-en-1-one formate] and `C=CC(=O)N1CCc2ccc(N[C@H]3CC[C@H](C(F)(F)F)CC3)cc2C1` [P-0056, 1-(7-(((1r,4r)-4-(trifluoromethyl)cyclohexyl)amino)-3,4-dihydroisoquinolin-2(1H)-yl)prop-2-en-1-one] fall in the same range of IC50: 0.001 to 0.5 µM for the first, 0.001 to 0.5 µM for the second.

For `C=CC(=O)N1CCc2ccc(Oc3cc(F)cc(F)c3)cc2C1` [P-0057, 1-(7-(3,5-difluorophenoxy)-3,4-dihydroisoquinolin-2(1H)-yl)prop-2-en-1-one], the IC50 was 0.001 to 0.5 µM.
